Consider 36 compounds from patent US8338565B2, “Macrocyclic compounds for inhibition of tumor necrosis factor alpha” (Ensemble Therapeutics Corporation, priority 2008, dated 2012).

pIC50: −log10 of the molar value. Numbered stars: 1 amine (or outer) side, 2 acyl side, 3 side chain; on linkers, the order of the positions; unused ones are H or OH. Bridge positions count the residues as written; N and C are the ends. Square brackets hold non-standard residues; d marks the D form. Peptide text beside a SMILES is read from it. Tartaroyl(2R,3R-(OAc)2) = CC(=O)O[C@@H](C(=O)[*:1])[C@@H](OC(C)=O)C(=O)[*:2]; Phe(4-COOH) = N[C@@H](Cc1ccc(C(=O)O)cc1)C(=O)O; Phe(2,4-Cl2) = N[C@@H](Cc1ccc(Cl)cc1Cl)C(=O)O; Bip = N[C@@H](Cc1ccc(-c2ccccc2)cc1)C(=O)O; dPhe(4-NH2) = Nc1ccc(C[C@@H](N)C(=O)O)cc1; Phe(4-Br) = N[C@@H](Cc1ccc(Br)cc1)C(=O)O; Phe(4-NH2) = Nc1ccc(C[C@H](N)C(=O)O)cc1; d(hPhe) = N[C@H](CCc1ccccc1)C(=O)O; d2Thi = N[C@H](Cc1cccs1)C(=O)O; Suc = O=C(CCC(=O)[*:2])[*:1]; Dap = NC[C@H](N)C(=O)O; GABA = NCCCC(=O)O

T1 sequence (P01375 77-233 limits assumed, species assumed): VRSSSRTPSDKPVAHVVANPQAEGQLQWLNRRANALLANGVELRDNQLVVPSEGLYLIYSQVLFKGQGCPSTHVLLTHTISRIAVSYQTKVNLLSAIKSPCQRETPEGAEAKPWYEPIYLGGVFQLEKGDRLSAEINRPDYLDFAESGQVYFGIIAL

This experiment concerns the target T1, TNFα / TNFα receptor (TNFα R1/Fc) (Homo sapiens, UniProt P01375).
T1 construct: purchased R&D Systems
Description: Inhibition of binding of TNFα to the TNFα receptor (plate ELISA competition). Conditions: Table 2; read-out: Activity (IC50, inhibition of TNFα binding to TNFα R1/Fc). Put shortly:
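Plates were coated with TNFα at 15 nM. Test compound and 8.33 nM receptor-Fc (PBST, 2% DMSO) were first mixed in solution for 30 min at room temperature, then transferred to the plates for another 30 min. Competition was read by absorbance at 450 nm after HRP anti-human IgG Fc detection with TMB.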
`O=C1COc2ccc(cc2)C[C@@H](C(=O)N[C@@H](Cc2ccccc2)C(=O)O)NC(=O)[C@H](Cc2ccccc2)NC(=O)[C@@H](Cc2ccc(-c3ccccc3)cc2)NC(=O)[C@H](Cc2cccs2)N1` [Compound 230]: the pIC50 is 4.52 to 5.00. Next, `CC(=O)O[C@H]1C(=O)Nc2ccc(cc2)C[C@H](C(=O)O)NC(=O)[C@@H](Cc2ccccc2)NC(=O)[C@H](Cc2ccc(Br)cc2)NC(=O)[C@@H](Cc2ccccc2)NC(=O)[C@@H]1OC(C)=O` [Compound 231] ([dF][Phe(4-Br)][dF][dPhe(4-NH2)]-OH; linker N-4 via Tartaroyl(2R,3R-(OAc)2)): less than 4.00; `CC(=O)O[C@H]1C(=O)Nc2ccc(cc2)C[C@H](C(=O)O)NC(=O)[C@@H](Cc2ccccc2)NC(=O)[C@H](Cc2ccc(Br)cc2)NC(=O)[C@@H](Cc2cccs2)NC(=O)[C@@H]1OC(C)=O` [Compound 232] ([d2Thi][Phe(4-Br)][dF][dPhe(4-NH2)]-OH; linker N-4 via Tartaroyl(2R,3R-(OAc)2)): less than 4.00; `CC(=O)O[C@H]1C(=O)Nc2ccc(cc2)C[C@H](C(=O)O)NC(=O)[C@@H](Cc2ccccc2)NC(=O)[C@H](Cc2ccc(Cl)cc2Cl)NC(=O)[C@@H](Cc2ccccc2)NC(=O)[C@@H]1OC(C)=O` [Compound 233] ([dF][Phe(2,4-Cl2)][dF][dPhe(4-NH2)]-OH; linker N-4 via Tartaroyl(2R,3R-(OAc)2)): 4.00 to 4.52. To `CC(=O)O[C@H]1C(=O)Nc2ccc(cc2)C[C@H](C(=O)O)NC(=O)[C@@H](Cc2ccccc2)NC(=O)[C@H](Cc2ccc(Cl)cc2Cl)NC(=O)[C@@H](Cc2cccs2)NC(=O)[C@@H]1OC(C)=O` [Compound 234] ([d2Thi][Phe(2,4-Cl2)][dF][dPhe(4-NH2)]-OH; linker N-4 via Tartaroyl(2R,3R-(OAc)2)) belongs less than 4.00; to `CC(=O)O[C@H]1C(=O)Nc2ccc(cc2)C[C@@H](C(=O)O)NC(=O)[C@@H](CCc2ccccc2)NC(=O)[C@H](Cc2ccc(-c3ccccc3)cc2)NC(=O)[C@@H](Cc2ccccc2)NC(=O)[C@@H]1OC(C)=O` [Compound 235] ([dF][Bip][d(hPhe)][Phe(4-NH2)]-OH; linker N-4 via Tartaroyl(2R,3R-(OAc)2)), 4.52 to 5.00. Next, `O=C1N[C@H](CCc2ccccc2)C(=O)N[C@@H](C(=O)O)Cc2ccc(cc2)NC(=O)[C@H](O)[C@@H](O)C(=O)N[C@H](Cc2cccs2)C(=O)N[C@H]1Cc1ccc(Br)cc1` [Compound 238]: more than 5.00; `O=C1N[C@H](CCc2ccccc2)C(=O)N[C@@H](C(=O)O)Cc2ccc(cc2)NC(=O)[C@H](O)[C@@H](O)C(=O)N[C@H](Cc2cccs2)C(=O)N[C@H]1Cc1ccc(Cl)cc1Cl` [Compound 240]: 4.52 to 5.00; `O=C1N[C@H](Cc2ccccc2)C(=O)N[C@@H](C(=O)O)Cc2ccc(cc2)NC(=O)[C@H](O)[C@@H](O)C(=O)N[C@H](Cc2ccccc2)C(=O)N[C@H]1Cc1ccc(-c2ccccc2)cc1` [Compound 241]: 4.00 to 4.52. Regarding `O=C1N[C@H](Cc2ccccc2)C(=O)N[C@@H](C(=O)O)Cc2ccc(cc2)NC(=O)[C@H](O)[C@@H](O)C(=O)N[C@H](Cc2cccs2)C(=O)N[C@H]1Cc1ccc(Br)cc1` [Compound 242], the pIC50 is 4.00 to 4.52.

Regarding `O=C1N[C@H](Cc2ccccc2)C(=O)N[C@@H](C(=O)O)Cc2ccc(cc2)NC(=O)[C@H](O)[C@@H](O)C(=O)N[C@H](Cc2ccccc2)C(=O)N[C@H]1Cc1ccc(Cl)cc1Cl` [Compound 243], the pIC50 is 4.00 to 4.52.

`O=C1N[C@H](Cc2ccccc2)C(=O)N[C@@H](C(=O)O)Cc2ccc(cc2)NC(=O)[C@H](O)[C@@H](O)C(=O)N[C@H](Cc2cccs2)C(=O)N[C@H]1Cc1ccc(Cl)cc1Cl` [Compound 244]: the pIC50 was 4.00 to 4.52. `O=C(O)[C@@H]1Cc2ccc(cc2)NC(=O)[C@H](O)[C@@H](O)C(=O)N[C@H](Cc2ccccc2)C(=O)N[C@@H](Cc2ccc(-c3ccccc3)cc2)C(=O)N[C@H](CCc2ccccc2)C(=O)N1` [Compound 245]: the pIC50 was 4.52 to 5.00. Next, `O=C(O)[C@@H]1Cc2ccc(cc2)NC(=O)[C@H](O)[C@@H](O)C(=O)N[C@H](CCc2ccccc2)C(=O)N[C@@H](Cc2ccc(-c3ccccc3)cc2)C(=O)N[C@H](Cc2ccccc2)C(=O)N1` [Compound 246]: 4.00 to 4.52; `O=C1CNC(=O)c2ccc(cc2)C[C@@H](C(=O)O)NC(=O)[C@@H](Cc2ccccc2)NC(=O)[C@H](Cc2ccc(-c3ccccc3)cc2)NC(=O)[C@@H](CCc2ccccc2)N1` [Compound 247] (G[d(hPhe)][Bip][dF][Phe(4-COOH)]-OH; lactam N-5): less than 4.00.

Regarding `O=C1CCCNC(=O)c2ccc(cc2)C[C@@H](C(=O)O)NC(=O)[C@@H](Cc2ccccc2)NC(=O)[C@H](Cc2ccc(-c3ccccc3)cc2)NC(=O)[C@@H](CCc2ccccc2)N1` [Compound 249] ([GABA][d(hPhe)][Bip][dF][Phe(4-COOH)]-OH; lactam N-5), the pIC50 is less than 4.00. With `O=C1COc2ccc(cc2)C[C@@H](C(=O)O)NC(=O)[C@@H]2CCCN2C(=O)[C@@H](Cc2ccc(-c3ccccc3)cc2)NC(=O)[C@H](Cc2cccs2)N1` [Compound 250], the pIC50 is less than 4.00. On to `O=C1CN(Cc2ccccc2)C(=O)[C@@H](Cc2ccc(-c3ccccc3)cc2)NC(=O)[C@H](Cc2cccs2)NC(=O)COc2ccc(cc2)C[C@@H](C(=O)O)N1` [Compound 253], for which the pIC50 was less than 4.00.

Regarding `O=C1COc2ccc(cc2)C[C@@H](C(=O)O)NC(=O)[C@H](CCc2ccccc2)NC(=O)[C@H](Cc2ccc(-c3ccccc3)cc2)NC(=O)[C@H](Cc2cccs2)N1` [Compound 254], the pIC50 is 4.52 to 5.00. As for `O=C1COc2ccc(cc2)C[C@@H](C(=O)O)NC(=O)[C@@H]2CCCN2C(=O)[C@H](Cc2ccc(-c3ccccc3)cc2)NC(=O)[C@H](Cc2cccs2)N1` [Compound 255], the pIC50 is less than 4.00.

As to `CC(=O)NCCCC[C@@H]1NC(=O)[C@H](Cc2ccc(-c3ccccc3)cc2)NC(=O)[C@H](Cc2cccs2)NC(=O)COc2ccc(cc2)C[C@@H](C(=O)O)NC1=O` [Compound 256], the pIC50 is less than 4.00. For `O=C1CN(Cc2ccccc2)C(=O)[C@H](Cc2ccc(-c3ccccc3)cc2)NC(=O)[C@H](Cc2cccs2)NC(=O)COc2ccc(cc2)C[C@@H](C(=O)O)N1` [Compound 257], the pIC50 was less than 4.00. With `O=C(O)CC[C@@H]1NC(=O)[C@H](Cc2ccc(-c3ccccc3)cc2)NC(=O)[C@H](Cc2cccs2)NC(=O)COc2ccc(cc2)C[C@@H](C(=O)O)NC1=O` [Compound 258], the pIC50 was less than 4.00.

Take `CC(C)(C)OC(=O)CC[C@@H]1NC(=O)[C@H](Cc2ccc(-c3ccccc3)cc2)NC(=O)[C@H](Cc2cccs2)NC(=O)COc2ccc(cc2)C[C@@H](C(=O)O)NC1=O` [Compound 259]: the pIC50 was 4.00 to 4.52. Regarding `N#Cc1ccc(C[C@H]2NC(=O)[C@H](O)[C@@H](O)C(=O)Nc3ccc(cc3)C[C@@H](C(=O)O)NC(=O)[C@@H](Cc3ccccc3)NC(=O)[C@H](Cc3ccc(-c4ccccc4)cc3)NC2=O)cc1` [Compound 260], the pIC50 is 4.00 to 4.52. Consider `O=C(O)[C@@H]1Cc2ccc(cc2)NC(=O)[C@H](O)[C@@H](O)C(=O)N[C@H](Cc2ccc(F)cc2)C(=O)N[C@@H](Cc2ccc(-c3ccccc3)cc2)C(=O)N[C@H](Cc2ccccc2)C(=O)N1` [Compound 261], for which the pIC50 was 4.00 to 4.52. On to `O=C(O)[C@@H]1Cc2ccc(cc2)NC(=O)[C@H](O)[C@@H](O)C(=O)N[C@H](Cc2ccc(F)c(F)c2)C(=O)N[C@@H](Cc2ccc(-c3ccccc3)cc2)C(=O)N[C@H](Cc2ccccc2)C(=O)N1` [Compound 262], for which the pIC50 is 4.52 to 5.00. `O=C(O)[C@@H]1Cc2ccc(cc2)NC(=O)[C@H](O)[C@@H](O)C(=O)N[C@H](Cc2ccc(C(F)(F)F)cc2)C(=O)N[C@@H](Cc2ccc(-c3ccccc3)cc2)C(=O)N[C@H](Cc2ccccc2)C(=O)N1` [Compound 263]: the pIC50 is less than 4.00.

For the compound `Cc1ccc(C[C@H]2NC(=O)[C@H](O)[C@@H](O)C(=O)Nc3ccc(cc3)C[C@@H](C(=O)O)NC(=O)[C@@H](Cc3ccccc3)NC(=O)[C@H](Cc3ccc(-c4ccccc4)cc3)NC2=O)cc1` [Compound 264], the pIC50 was less than 4.00.

Regarding `N[C@H]1CNC(=O)c2ccc(cc2)C[C@@H](C(=O)O)NC(=O)[C@@H](Cc2ccccc2)NC(=O)[C@H](Cc2ccc(-c3ccccc3)cc2)NC(=O)[C@@H](CCc2ccccc2)NC1=O` [Compound 265] (H-[Dap][d(hPhe)][Bip][dF][Phe(4-COOH)]-OH; lactam 1-5), the pIC50 is less than 4.00.

Consider `CC(=O)N[C@H]1CNC(=O)c2ccc(cc2)C[C@@H](C(=O)O)NC(=O)[C@@H](Cc2ccccc2)NC(=O)[C@H](Cc2ccc(-c3ccccc3)cc2)NC(=O)[C@@H](CCc2ccccc2)NC1=O` [Compound 266] (Ac-[Dap][d(hPhe)][Bip][dF][Phe(4-COOH)]-OH; lactam 1-5), for which the pIC50 is less than 4.00. Consider `O=C(O)CCC(=O)N[C@H]1CNC(=O)c2ccc(cc2)C[C@@H](C(=O)O)NC(=O)[C@@H](Cc2ccccc2)NC(=O)[C@H](Cc2ccc(-c3ccccc3)cc2)NC(=O)[C@@H](CCc2ccccc2)NC1=O` [Compound 267] (Suc-[Dap][d(hPhe)][Bip][dF][Phe(4-COOH)]-OH; lactam 1-5), for which the pIC50 is less than 4.00. Next, `O=C(O)[C@@H]1Cc2ccc(cc2)NC(=O)[C@H](O)[C@@H](O)C(=O)N[C@H](Cc2cccs2)C(=O)N[C@@H](Cc2ccc(-c3ccccc3)cc2)C(=O)N[C@@H](Cc2ccccc2)C(=O)N1` [Compound 268]: less than 4.00; `O=C(O)[C@@H]1Cc2ccc(cc2)NC(=O)[C@H](O)[C@@H](O)C(=O)N[C@H](Cc2cccs2)C(=O)N[C@H](Cc2ccc(-c3ccccc3)cc2)C(=O)N[C@H](Cc2ccccc2)C(=O)N1` [Compound 269]: less than 4.00.

As to `O=C(O)[C@@H]1Cc2ccc(cc2)NC(=O)[C@H](O)[C@@H](O)C(=O)N[C@@H](Cc2cccs2)C(=O)N[C@@H](Cc2ccc(-c3ccccc3)cc2)C(=O)N[C@H](Cc2ccccc2)C(=O)N1` [Compound 270], the pIC50 was less than 4.00. For `O=C(O)[C@@H]1Cc2ccc(cc2)NC(=O)[C@H](O)[C@@H](O)C(=O)N[C@@H](Cc2cccs2)C(=O)N[C@H](Cc2ccc(-c3ccccc3)cc2)C(=O)N[C@@H](Cc2ccccc2)C(=O)N1` [Compound 271], the pIC50 is less than 4.00.
